Experimental data published in patent US20230248638A1, “A PERSONAL CARE COMPOSITION COMPRISING ATRACTYLENOLIDE-I OR A SOURCE THEREOF” (Conopco, Inc., d/b/a UNILEVER, priority 2020, published 2023).

Test system: Normal human epidermal melanocytes (NHEM)
Experiment: Melanin content quantification in melanocytes
Format: cell-based
Conditions: 72 hours treatment, concentration as in Treatment column, melanin normalized to relative cell viability
Procedure: Normal human epidermal melanocytes (NHEM) (Biocell, Xi'an, China) were grown in melanocyte growth medium (MGM, Promocell, Germany) with human melanocyte growth supplement (Promocell, Germany). NHEM cells were seeded at a density of 4×10^4 cells in 500 μL MGM/well in a 24-well plate and incubated for 48 hours in an incubator (Thermo Scientific, Model 3111) at 37° C. with 5% CO2. After 48 hours, media was replaced with fresh media containing test samples (as per Table 1) for the following 72 hours.
After CCK8 absorbance readings were obtained, cells were lysed by lysis buffer at 60° C. for 1 hr. Then, 50 μL cell lysate was transferred to a new 96-well plate and absorbance was measured at 405 nm using TECAN plate reader. Serial dilutions of pure melanin were prepared as references.
The melanin content was calculated from the melanin standard curve. The melanin concentrations (μg/mL) were then normalized to the relative cell viability. The melanin inhibition rates were then calculated using the following equation: […]

Row | Structure (SMILES) | Melanin inhibition rate (% inhibition)
1 | C=C1CCC[C@]2(C)C=C3OC(=O)C(C)=C3C[C@@H]12 [D, Atractylenolide -1] | 7.8 ± 2.80
2 | CCCCCCC(O)CCCCCCCCCCC(=O)O (centres unmarked) [Example B, 12 hydroxystearic acid] | 5.6 ± 3.03
